Active and inactive are the calls of the source.
How the values were obtained:
[1] = Antiproliferative activity against human COV362 cells assessed as fold change in inhibition of cell growth at 0.3 to 1.2 uM incubated for 72 hrs by MTT assay; assay type: functional; conditions: dose 0.3-1.2 µM
[2] = tested on: BT-549; assay: Induction in cell cycle arrest in human BT-549 cells assessed as downregulation of CDK1 expression at 0.5 uM incubated for 48 hrs by Western blotting analysis; assay type: functional, cell-based
[3] = tested on: BT-549; assay: Cytotoxicity against human BT-549 cells assessed as inhibition of cell growth incubated for 72 hrs by MTT assay; assay type: functional, cell-based; conditions: BT-549, 72 h
[4] = target: T1, Poly [ADP-ribose] polymerase 1 (Homo sapiens, UniProt P09874); assay: Inhibition of PARP-1 in human BT-549 cells assessed as downregulation of P-ATM expression at 0.05 uM incubated for 48 hrs by immunoblotting analysis; assay type: cell-based
T1 sequence (P09874 whole entry): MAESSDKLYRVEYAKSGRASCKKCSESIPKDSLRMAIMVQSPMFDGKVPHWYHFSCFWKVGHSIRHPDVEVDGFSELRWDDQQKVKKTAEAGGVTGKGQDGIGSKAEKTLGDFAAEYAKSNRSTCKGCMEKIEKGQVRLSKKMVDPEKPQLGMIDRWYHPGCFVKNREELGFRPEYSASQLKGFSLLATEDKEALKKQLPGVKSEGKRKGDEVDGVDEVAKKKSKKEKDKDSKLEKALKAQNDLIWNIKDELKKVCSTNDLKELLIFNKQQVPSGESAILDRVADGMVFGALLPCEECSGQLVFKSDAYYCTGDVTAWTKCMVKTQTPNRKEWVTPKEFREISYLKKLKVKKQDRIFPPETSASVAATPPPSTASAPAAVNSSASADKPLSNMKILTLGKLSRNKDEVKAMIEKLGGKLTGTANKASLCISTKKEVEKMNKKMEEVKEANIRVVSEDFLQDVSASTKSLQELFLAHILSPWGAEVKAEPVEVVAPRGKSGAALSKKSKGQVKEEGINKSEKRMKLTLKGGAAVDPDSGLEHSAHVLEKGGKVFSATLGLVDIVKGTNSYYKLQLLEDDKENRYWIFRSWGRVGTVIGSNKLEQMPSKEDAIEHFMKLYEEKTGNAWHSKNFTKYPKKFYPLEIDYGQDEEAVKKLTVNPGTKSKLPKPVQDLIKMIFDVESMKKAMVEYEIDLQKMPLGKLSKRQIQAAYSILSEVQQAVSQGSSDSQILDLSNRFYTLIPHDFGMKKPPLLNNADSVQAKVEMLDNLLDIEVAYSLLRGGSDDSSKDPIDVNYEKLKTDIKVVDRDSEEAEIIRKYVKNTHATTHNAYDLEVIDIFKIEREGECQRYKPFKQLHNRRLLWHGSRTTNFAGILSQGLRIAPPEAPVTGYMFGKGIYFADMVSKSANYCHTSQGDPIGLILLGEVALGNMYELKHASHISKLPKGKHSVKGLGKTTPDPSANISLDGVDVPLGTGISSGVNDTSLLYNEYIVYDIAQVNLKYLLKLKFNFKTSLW

[5] = tested on: BT-549; assay: Induction of DNA damage in human BT-549 cells assessed as increase in gamma-H2AX localization in nucleus at 0.125 uM incubated for 48 hrs by fluorescence confocal microscopic analysis; assay type: functional, cell-based
[6] = tested on: SK-OV-3; assay: Antiproliferative activity against human SK-OV-3 cells assessed as fold change in inhibition of cell growth at 0.3 to 1.2 uM incubated for 72 hrs by MTT assay; assay type: functional; conditions: dose 0.3-1.2 µM
[7] = tested on: BT-549; assay: Induction of apoptosis in human BT-549 cells assessed as increase in late apoptotic cells incubated for 48 hrs by Annexin V-FITC/PI staining based flow cytometric analysis; assay type: functional, cell-based
[8] = tested on: BT-549; assay: Induction of apoptosis in human BT-549 cells assessed as increase in early apoptotic cells incubated for 48 hrs by Annexin V-FITC/PI staining based flow cytometric analysis; assay type: functional, cell-based
[9] = tested on: PC-3; assay: Antiproliferative activity against human PC-3 cells assessed as fold change in inhibition of cell growth at 0.3 to 1.2 uM incubated for 72 hrs by MTT assay; assay type: functional; conditions: dose 0.3-1.2 µM
[10] = tested on: BT-549; assay: Induction of apoptosis in human BT-549 cells assessed as upregulation of cleaved PARP expression incubated for 48 hrs by Western blotting analysis; assay type: functional, cell-based
[11] = target: T1, Poly [ADP-ribose] polymerase 1; assay: Inhibition of PARP-1 in human BT-549 cells assessed as downregulation of BRCA1 expression at 0.5 uM incubated for 48 hrs by immunoblotting analysis; assay type: cell-based
[12] = tested on: MCF7; assay: Antiproliferative activity against human MCF7 cells assessed as fold change in inhibition of cell growth at 0.3 to 1.2 uM incubated for 72 hrs by MTT assay; assay type: functional; conditions: dose 0.3-1.2 µM
[13] = tested on: HEY; assay: Antiproliferative activity against human HEY cells assessed as fold change in inhibition of cell growth at 0.3 to 1.2 uM incubated for 72 hrs by MTT assay; assay type: functional; conditions: dose 0.3-1.2 µM
[14] = target: T1, Poly [ADP-ribose] polymerase 1; assay: Inhibition of PARP-1 in human BT-549 cells assessed as downregulation of RAD51 expression at 0.5 uM incubated for 48 hrs by immunoblotting analysis; assay type: cell-based
[15] = tested on: NCI-H1299; assay: Antiproliferative activity against human NCI-H1299 cells assessed as fold change in inhibition of cell growth at 0.3 to 1.2 uM incubated for 72 hrs by MTT assay; assay type: functional; conditions: dose 0.3-1.2 µM
[16] = tested on: BT-549; assay: Induction of apoptosis in human BT-549 cells assessed as upregulation of cleaved caspase-3 expression incubated for 48 hrs by Western blotting analysis; assay type: functional, cell-based
[17] = tested on: ES-2; assay: Antiproliferative activity against human ES2 cells assessed as fold change in inhibition of cell growth at 0.3 to 1.2 uM incubated for 72 hrs by MTT assay; assay type: functional; conditions: dose 0.3-1.2 µM
[18] = target: 20S proteasome; assay: Inhibition of 20S proteasome (unknown origin) using […] as substrate; assay type: protein-complex assay, Homo sapiens
[19] = tested on: BT-549; assay: Induction of DNA damage in human BT-549 cells assessed as increase in polyubiquitination at 0.125 uM incubated for 48 hrs by fluorescence confocal microscopic analysis; assay type: functional, cell-based
[20] = target: T1, Poly [ADP-ribose] polymerase 1; assay: Inhibition of PARP-1 in human BT-549 cells assessed as downregulation of BRCA1 expression at 0.05 uM incubated for 48 hrs by immunoblotting analysis; assay type: cell-based
[21] = target: T1, Poly [ADP-ribose] polymerase 1; assay: Inhibition of PARP-1 in human BT-549 cells assessed as downregulation of RAD51 expression at 0.05 uM incubated for 48 hrs by immunoblotting analysis; assay type: cell-based
[22] = tested on: MCF7; assay: Cytotoxicity against human MCF7 cells assessed as inhibition of cell growth incubated for 72 hrs by MTT assay; assay type: functional, cell-based; conditions: MCF7, 72 h
[23] = tested on: BT-549; assay: Induction in cell cycle arrest in human BT-549 cells assessed as downregulation of Cyclin A2 expression at 0.5 uM incubated for 48 hrs by Western blotting analysis; assay type: functional, cell-based
[24] = tested on: BT-549; assay: Induction of DNA damage in human BT-549 cells assessed as decrease in BRCA1 localization in nucleus at 0.125 uM incubated for 48 hrs by fluorescence confocal microscopic analysis; assay type: functional, cell-based
[25] = target: T1, Poly [ADP-ribose] polymerase 1; assay: Inhibition of PARP-1 in human BT-549 cells assessed as downregulation of BRCA1 mRNA expression incubated for 48 hrs by RT-qPCR analysis; assay type: cell-based
[26] = tested on: BT-549; assay: Induction of DNA damage in human BT-549 cells assessed as decrease in polyubiquitination in nucleus at 0.125 uM incubated for 48 hrs by fluorescence confocal microscopic analysis; assay type: functional, cell-based
[27] = tested on: BT-549; assay: Induction in cell cycle arrest in human BT-549 cells assessed as downregulation of CDK1 expression at 0.05 uM incubated for 48 hrs by Western blotting analysis; assay type: functional, cell-based
[28] = target: T1, Poly [ADP-ribose] polymerase 1; assay: Inhibition of PARP-1 (unknown origin) using Femto-ECL as substrate preincubated for 2.7 hrs followed by substrate addition by chemiluminescence assay
[29] = tested on: BT-549; assay: Inhibition of colony formation in human BT-549 cells assessed as reduction in colony number incubated for 14 days by crystal violet staining based analysis; assay type: functional, cell-based; conditions: time 14.0 day
[30] = tested on: BT-549; assay: Induction of DNA damage in human BT-549 cells assessed as upregulation of gamma-H2AX level at 0.5 uM incubated for 48 hrs by immunoblotting analysis; assay type: functional, cell-based
[31] = tested on: BT-549; assay: Inhibition of colony formation in human BT-549 cells assessed as reduction in colony size incubated for 14 days by crystal violet staining based analysis; assay type: functional, cell-based; conditions: time 14.0 day
[32] = tested on: MDA-MB-231; assay: Antiproliferative activity against human MDA-MB-231 cells assessed as fold change in inhibition of cell growth at 0.3 to 1.2 uM incubated for 72 hrs by MTT assay; assay type: functional; conditions: dose 0.3-1.2 µM
[33] = target: T1, Poly [ADP-ribose] polymerase 1; assay: Inhibition of PARP-1 in human BT-549 cells assessed as downregulation of FANCD2 mRNA expression incubated for 48 hrs by RT-qPCR analysis; assay type: cell-based
[34] = target: T1, Poly [ADP-ribose] polymerase 1; assay: Inhibition of PARP-1 in human BT-549 cells assessed as downregulation of P-ATM expression at 0.5 uM incubated for 48 hrs by immunoblotting analysis; assay type: cell-based
[35] = tested on: BT-549; assay: Induction in cell cycle arrest in human BT-549 cells assessed as downregulation of Cyclin A2 expression at 0.05 uM incubated for 48 hrs by Western blotting analysis; assay type: functional, cell-based
[36] = tested on: MDA-MB-231; assay: Cytotoxicity against human MDA-MB-231 cells assessed as inhibition of cell growth incubated for 72 hrs by MTT assay; assay type: functional, cell-based; conditions: MDA-MB-231, 72 h
[37] = tested on: BT-549; assay: Induction of DNA damage in human BT-549 cells assessed as decrease in ubiquitin localization in nucleus at 0.125 uM incubated for 48 hrs by fluorescence confocal microscopic analysis; assay type: functional, cell-based
[38] = tested on: BT-549; assay: Induction in cell cycle arrest in human BT-549 cells assessed as upregulation of p21 expression at 0.5 uM incubated for 48 hrs by Western blotting analysis; assay type: functional, cell-based
[39] = target: T1, Poly [ADP-ribose] polymerase 1; assay: Inhibition of PARP-1 in human BT-549 cells assessed as downregulation of BRCA2 mRNA expression incubated for 48 hrs by RT-qPCR analysis; assay type: cell-based
[40] = tested on: BT-549; assay: Induction of DNA damage in human BT-549 cells assessed as upregulation of gamma-H2AX level at 0.05 uM incubated for 48 hrs by immunoblotting analysis; assay type: functional, cell-based
[41] = tested on: BT-549; assay: Antiproliferative activity against human BT-549 cells assessed as fold change in inhibition of cell growth at 0.3 to 1.2 uM incubated for 72 hrs by MTT assay; assay type: functional; conditions: dose 0.3-1.2 µM
[42] = tested on: BT-549; assay: Induction in cell cycle arrest in human BT-549 cells assessed as upregulation of p21 expression at 0.05 uM incubated for 48 hrs by Western blotting analysis; assay type: functional, cell-based
[43] = tested on: A549; assay: Antiproliferative activity against human A549 cells assessed as fold change in inhibition of cell growth at 0.3 to 1.2 uM incubated for 72 hrs by MTT assay; assay type: functional; conditions: dose 0.3-1.2 µM
[44] = target: T1, Poly [ADP-ribose] polymerase 1; assay: Inhibition of PARP-1 in human BT-549 cells assessed as downregulation of RAD51 mRNA expression incubated for 48 hrs by RT-qPCR analysis; assay type: cell-based
[45] = tested on: BT-549; assay: Synergistic antiproliferative activity against human BT-549 cells assessed as synergistic score in presence of Ixazomib; assay type: functional
[46] = tested on: BT-549; assay: Induction of DNA damage in human BT-549 cells assessed as upregulation of gamma-H2AX level at 1 uM incubated for 48 hrs by immunoblotting analysis; assay type: functional, cell-based

CC(C)C[C@H](NC(=O)[C@H](CC(C)C)NC(=O)c1cc(Cc2n[nH]c(=O)c3ccccc23)ccc1F)B1O[C@@H]2C[C@@H]3C[C@@H](C3(C)C)[C@]2(C)O1
31.2 nM: IC50 [36]
10: fold change (FC) [12] | fold change (FC) [32] | fold change (FC) [41]
active: Activity [2] | inhibition [4] | Activity [5] | Activity [7] Dose-Dependent Effect | Activity [8] Dose-Dependent Effect | Activity [10] Dose-Dependent Effect | inhibition [11] | inhibition [14] | Activity [16] Dose-Dependent Effect | Activity [19] | inhibition [20] | inhibition [21] | Activity [23] | Activity [24] | inhibition [25] Dose-Dependent Effect | Activity [26] | Activity [27] | inhibition [29] Dose-Dependent Effect | Activity [30] | inhibition [31] Dose-Dependent Effect | inhibition [33] Dose-Dependent Effect | inhibition [34] | Activity [35] | Activity [37] | Activity [38] | inhibition [39] Dose-Dependent Effect | Activity [40] | Activity [42] | inhibition [44] Dose-Dependent Effect
1: fold change (FC) [1] | fold change (FC) [6] | fold change (FC) [9] | fold change (FC) [13] | fold change (FC) [15] | fold change (FC) [17] | fold change (FC) [43]
49.5 nM: IC50 [22]
60.9 nM: IC50 [18]
137 nM: IC50 [28]
17.8 nM: IC50 [3]

O=C(c1cc(Cc2n[nH]c(=O)c3ccccc23)ccc1F)N1CCN(C(=O)C2CC2)CC1 [OLAPARIB]
active: Activity [46] | Activity [30]
12.407: Activity [45]
10600 nM: IC50 [22]
> 30000 nM: IC50 [36]
6610 nM: IC50 [3]
